Reference: paper PMC4460250, “Systems Pharmacology Dissecting Holistic Medicine for Treatment of Complex Diseases: An Example Using Cardiocerebrovascular Diseases Treated by TCM” (Evidence-based Complementary and Alternative Medicine : eCAM, 2015)

Experiments:
[1] = in vivo; cited from earlier work
[2] = in vivo

Row | SMILES | HIA(Human Intestinal Absorption) [1] | Class(High: HIA value ≥0.7; Low: HIA value < 0.7) [2]
1 | NS(=O)(=O)c1cc([C@@]2(O)NC(=O)c3ccccc32)ccc1Cl [Chlorthalidone(S)] | 0.65 | Low (key: High: HIA value ≥0.7; Low: HIA value < 0.7)
2 | CCCCCCCN(CC)CCC[C@H](O)c1ccc(NS(C)(=O)=O)cc1 [Ibutilide(S)] | 0.82 | High (key: High: HIA value ≥0.7; Low: HIA value < 0.7)
3 | O=[N+]([O-])O[C@H]1CO[C@H]2[C@@H]1OC[C@H]2O[N+](=O)[O-] [Isosorbide_dinitrate] | 1 | High (key: High: HIA value ≥0.7; Low: HIA value < 0.7)
4 | Cc1cccc(C)c1NC(=O)[C@H](C)N [Tocainide(S)] | 1 | High (key: High: HIA value ≥0.7; Low: HIA value < 0.7)
5 | CC[C@@H](C(N)=O)N1CCCC1=O [Levetiracetam(S)] | 1 | High (key: High: HIA value ≥0.7; Low: HIA value < 0.7)
6 | CC(C)NC[C@@H](O)c1ccc(O)c(O)c1 [Isoproterenol(S)] | 0.85 | High (key: High: HIA value ≥0.7; Low: HIA value < 0.7)
7 | CC1(C)S[C@@H]2[C@H](NC(=O)COc3ccccc3)C(=O)N2[C@H]1C(=O)O [Phenoxymethyl penicillinic acid] | 0.45 | Low (key: High: HIA value ≥0.7; Low: HIA value < 0.7)
8 | CC[C@H](c1ccccc1)c1c(O)c2ccccc2oc1=O [Phenprocoumon(R)] | 0.95 | High (key: High: HIA value ≥0.7; Low: HIA value < 0.7)
9 | Cn1c(=O)c2c(ncn2CCCNC[C@@H](O)c2cc(O)cc(O)c2)n(C)c1=O [Reproterol(S)] | 0.6 | Low (key: High: HIA value ≥0.7; Low: HIA value < 0.7)
10 | C[C@H](O)Cn1cnc2c1c(=O)n(C)c(=O)n2C [Proxyphylline(S)] | 1 | High (key: High: HIA value ≥0.7; Low: HIA value < 0.7)
11 | C[N+]1(C)CCCC1COC(=O)C(O)(c1ccccc1)c1ccccc1 (centres unmarked) [Poldine] | 0.05 | Low (key: High: HIA value ≥0.7; Low: HIA value < 0.7)
12 | CCC[C@@H](C)C1(CC)C(=O)NC(=O)NC1=O [Pentobarbital(R)] | 1 | High (key: High: HIA value ≥0.7; Low: HIA value < 0.7)
13 | C[C@@H](C(=O)O)c1cccc(Oc2ccccc2)c1 [Fenoprofen(R)] | 0.85 | High (key: High: HIA value ≥0.7; Low: HIA value < 0.7)
14 | C[C@@H]1COc2c(N3CCN(C)CC3)c(F)cc3c(=O)c(C(=O)O)cn1c23 [Ofloxacin(R)] | 1 | High (key: High: HIA value ≥0.7; Low: HIA value < 0.7)
15 | C[C@H](NC(C)(C)C)C(=O)c1cccc(Cl)c1 [Bupropion(S)] | 0.87 | High (key: High: HIA value ≥0.7; Low: HIA value < 0.7)
16 | C[C@]12CCC(=O)C=C1CC[C@@H]1[C@@H]2[C@@H](O)C[C@@]2(C)[C@H]1CC[C@]2(O)C(=O)CO [Hydrocortisone] | 0.91 | High (key: High: HIA value ≥0.7; Low: HIA value < 0.7)
17 | COc1ccc(C[C@@H](C)N)cc1 [Methoxyamphetamine(R)] | 0.8 | High (key: High: HIA value ≥0.7; Low: HIA value < 0.7)
18 | C[C@H]1O[C@H](O[C@H]2[C@H](O)[C@@H](O)[C@@H](O[C@H]3[C@H](O)[C@@H](O)C(O)O[C@@H]3CO)O[C@@H]2CO)[C@H](O)[C@@H](O)[C@@H]1N[C@H]1C=C(CO)[C@@H](O)[C@H](O)[C@H]1O (some centres unmarked) [Acarbose] | 0.02 | Low (key: High: HIA value ≥0.7; Low: HIA value < 0.7)
19 | CC[C@@]1(c2ccc(N)cc2)CCC(=O)NC1=O [Aminoglutethimide(S)] | 1 | High (key: High: HIA value ≥0.7; Low: HIA value < 0.7)
20 | CN1C(=O)[C@@H](O)N=C(c2ccccc2Cl)c2cc(Cl)ccc21 [Lormetazepam(R)] | 1 | High (key: High: HIA value ≥0.7; Low: HIA value < 0.7)
21 | CCOc1cc(CC(=O)NC(CC(C)C)c2ccccc2N2CCCCC2)ccc1C(=O)O (stereo in doubt) [Repaglinide(R)] | 1 | High (key: High: HIA value ≥0.7; Low: HIA value < 0.7)
22 | CCN[C@H](C)Cc1cccc(C(F)(F)F)c1 [Fenfluramine(R)] | 0.95 | High (key: High: HIA value ≥0.7; Low: HIA value < 0.7)
23 | C=CCC1(C(C)CCC)C(=O)NC(=O)NC1=O (centres unmarked) [Quinalbarbitone] | 0.9 | High (key: High: HIA value ≥0.7; Low: HIA value < 0.7)

Row | SMILES | HIA(Human Intestinal Absorption) [1] | Class(High: HIA value ≥0.7; Low: HIA value < 0.7) [2]
24 | CC(C)(C)NC[C@H](O)COc1nsnc1N1CCOCC1 [Timolol(S)] | 0.95 | High (key: High: HIA value ≥0.7; Low: HIA value < 0.7)
25 | CC1(C)S[C@@H]2[C@H](NC(=O)C(C(=O)Oc3ccccc3)c3ccccc3)C(=O)N2[C@H]1C(=O)O (stereo partly drawn) [Carfecillin(R)] | 0.99 | High (key: High: HIA value ≥0.7; Low: HIA value < 0.7)
26 | CC(C)NC[C@@H](O)c1ccc(NS(C)(=O)=O)cc1 [Sotalol(S)] | 0.95 | High (key: High: HIA value ≥0.7; Low: HIA value < 0.7)
27 | C[C@@H](C(=O)O)c1ccc(-c2ccccc2)c(F)c1 [Flurbiprofen(R)] | 0.95 | High (key: High: HIA value ≥0.7; Low: HIA value < 0.7)
28 | COC(=O)C1=C(C)NC(C)=C(C(=O)OCC(C)C)[C@H]1c1ccccc1[N+](=O)[O-] [Nisoldipine(S)] | 0.9 | High (key: High: HIA value ≥0.7; Low: HIA value < 0.7)
29 | CCN(CC)CCN1C(=O)CN=C(c2ccccc2F)c2cc(Cl)ccc21 [Flurazepam] | 1 | High (key: High: HIA value ≥0.7; Low: HIA value < 0.7)
30 | COc1ccc(Cc2nccc3cc(OC)c(OC)cc23)cc1OC [Papaverine] | 0.9 | High (key: High: HIA value ≥0.7; Low: HIA value < 0.7)
31 | COP(=O)(OC)O[C@H](c1ccc(Cl)cc1)P(=O)(OC)OC [Mifobate(S)] | 0.82 | High (key: High: HIA value ≥0.7; Low: HIA value < 0.7)
32 | O=C1CN=C(c2ccccn2)c2cc(Br)ccc2N1 [Bromazepam] | 0.84 | High (key: High: HIA value ≥0.7; Low: HIA value < 0.7)
33 | COc1ccc2c3c1O[C@H]1[C@@H](O)C=C[C@H]4[C@@H](C2)N(C)CC[C@@]341 [Codeine] | 0.93 | High (key: High: HIA value ≥0.7; Low: HIA value < 0.7)
34 | CCO [Ethyl_alcohol] | 1 | High (key: High: HIA value ≥0.7; Low: HIA value < 0.7)
35 | COC(=O)C1=C(C)NC(C)=C(C(=O)OC(C)C)[C@H]1c1cccc2nonc12 [Isradipine(S)] | 0.92 | High (key: High: HIA value ≥0.7; Low: HIA value < 0.7)
36 | CN1C(=O)CCC1c1cccnc1 (stereo in doubt) [Cotinine(R)] | 0.97 | High (key: High: HIA value ≥0.7; Low: HIA value < 0.7)
37 | CC(C)(C)NC[C@H](O)c1ccc(O)c(CO)c1 [Albuterol(R)] | 0.83 | High (key: High: HIA value ≥0.7; Low: HIA value < 0.7)
38 | O=C(NC[C@@H]1CCCCN1)c1cc(OCC(F)(F)F)ccc1OCC(F)(F)F [Flecainide(S)] | 0.81 | High (key: High: HIA value ≥0.7; Low: HIA value < 0.7)
39 | CC(=O)Nc1ccc(OC[C@H](O)CNC(C)C)cc1 [Practolol(R)] | 0.95 | High (key: High: HIA value ≥0.7; Low: HIA value < 0.7)
40 | CCN(CCO)CCC[C@H](C)Nc1ccnc2cc(Cl)ccc12 [Hydroxychloroquine(S)] | 0.9 | High (key: High: HIA value ≥0.7; Low: HIA value < 0.7)
41 | O=C1Nc2ccc(Cl)cc2C(c2ccccc2Cl)=N[C@@H]1O [Lorazepam(R)] | 0.95 | High (key: High: HIA value ≥0.7; Low: HIA value < 0.7)
42 | CC1=CC(=O)N2CC(=O)N(C)c3ccc(Cl)cc3C2(c2ccccc2)O1 (centres unmarked) [Ketazolam] | 1 | High (key: High: HIA value ≥0.7; Low: HIA value < 0.7)
43 | CN1C(=O)CC[C@H]1c1cccnc1 [Cotinine(S)] | 0.97 | High (key: High: HIA value ≥0.7; Low: HIA value < 0.7)
44 | O[C@](CCN1CCCCC1)(c1ccccc1)C1CCCCC1 [Trihexyphenidyl(S)] | 1 | High (key: High: HIA value ≥0.7; Low: HIA value < 0.7)
45 | COC(=O)C1=C(C)NC(C)=C(C(=O)OCCN(C)Cc2ccccc2)[C@H]1c1cccc([N+](=O)[O-])c1 [Nicardipine(S)] | 0.95 | High (key: High: HIA value ≥0.7; Low: HIA value < 0.7)
46 | NC[C@H](CC(=O)O)c1ccc(Cl)cc1 [Baclofen(R)] | 0.95 | High (key: High: HIA value ≥0.7; Low: HIA value < 0.7)
